Experimental findings from patent US20160178637A1, “DETECTION OF ALPHA, BETA-DICARBONYL COMPOUNDS WITH FLUOROGENIC PROBES” (THE UNIVERSITY OF WARWICK, priority 2012, published 2016) are described below.

In data set [1] the test system is human leukaemia 60 cells (HL60). The data set can be described thus: Fluorescence imaging of MG in isolated human leukaemia cells. In kind it is cell-based. The note with it: HL60 cells 1×10^5 per ml, DAF-2 10 μM 40 min 37° C., washed, 30-120 min; excitation laser 457 nm, emission filter 470-500 nm.
A short description of data set [2]: Incubation of DAF-2 with the NO donor DETA-nonoate, fluorescence. The class given is physicochemical. The note with it: DAF-2 50 μM + DETA-nonoate 10 μM, 10 mM sodium phosphate buffer pH 7.4, 37° C., one hour. The method, then: 4,5-Diaminofluorescein (DAF-2) was a fluorogenic probe developed for the detection of nitric oxide. 4,5-Diaminorhodamine (DAR), 8-(3,4-diaminophenyl)-2,6-bis(2-carboxyethyl)-4,4-difluoro-1,3,5,7-tetramethyl-4-bora-3a,4a-diaza-s-indacene (DAM BO-P″) and o-diaminocyanine are analogous o-diamino derivatizing agents based on different intense fluorophores. DAF-2 reacts with nitric oxide to form the fluorophore triazolofluorescein [6]. For example, incubation of DAF-2 (50 μM) with the NO donor (Z)-1-[2-(2-aminoethyl)-N-(2-ammonioethyl)amino]diazen-1-ium-1,2-diolate (DETA-nonoate), 10 μM, in 10 mM sodium phosphate buffer, pH 7.4 at 37° C., for one hour gave characteristic fluorescence of triazolofluorescein—excitation and emission maximum wavelengths of 491 and 515 nm, respectively. A further metabolite that reacts with DAF-2 is ascorbic acid which forms adducts DAF-2-DHA-5008 and DAF-2-DHA-518 which are fluorescent with excitation and emission wavelength maxima of 490 and 514 nm, respectively.

As to `Nc1cc2c(cc1N)C1(OC2=O)c2ccc(O)cc2Oc2cc(O)ccc21` [DAF-2, 4,5-diaminofluorescein], the “fluorescence image of endogenous MG in cells” value in data set [1] was “fluorescence indicate of the DAF-2 MG adduct”.

Take `O=C1OC2(c3ccc(O)cc3Oc3cc(O)ccc32)c2ccc3[nH]nnc3c21` [triazolofluorescein]: in data set [2], the emission maximum wavelength is on record as 515 nm and the excitation maximum wavelength is recorded as 491 nm.
